# Values of other authors, collected in patent US20230241051A1, “LONG-ACTING FORMULATIONS” (Janssen Pharmaceutica NV, priority 2020, published 2023).
# Legend:
# Details in all cases: cited from earlier work
# [1] = molecular target: mycobacterial ATP synthase (Mycobacterium tuberculosis, UniProt P9WPS1+P9WPV7)
# Mycobacterium leprae = tested on: Mycobacterium leprae
# M. tuberculosis = tested on: M. tuberculosis
# mycobacterial ATP synthase, sequence (P9WPS1 whole entry, looked up): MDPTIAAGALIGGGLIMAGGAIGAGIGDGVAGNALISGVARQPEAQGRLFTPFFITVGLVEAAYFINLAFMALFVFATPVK
# mycobacterial ATP synthase, sequence (P9WPV7 whole entry, looked up): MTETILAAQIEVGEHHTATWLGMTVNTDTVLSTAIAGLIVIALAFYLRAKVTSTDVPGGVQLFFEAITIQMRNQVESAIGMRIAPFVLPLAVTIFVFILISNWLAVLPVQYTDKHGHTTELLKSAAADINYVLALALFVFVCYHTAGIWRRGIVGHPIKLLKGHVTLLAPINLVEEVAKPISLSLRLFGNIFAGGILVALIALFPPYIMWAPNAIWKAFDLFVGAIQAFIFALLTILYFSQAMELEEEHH
smiles,measurement,setting,value
COc1nc2ccc(Br)cc2cc1[C@@H](c1ccccc1)[C@@](O)(CCN(C)C)c1cccc2ccccc12 [bedaquiline],selectivity index for mycobacterial ATP synthase versus eukaryotic mitochondrial ATP synthase,[1],more than 20000
same,minimal dose killing 99% of bacilli,Mycobacterium leprae; M. lepra,< 5.0 mg/kg/wk
same,activity against Mycobacterium leprae,Mycobacterium leprae; mice,bactericidal
same,minimal dose killing 99% of bacilli,M. tuberculosis,30 mg/kg/wk
